Laboratory results published in ChEMBL document CHEMBL3797059 (Bioorg Med Chem Lett, 2016).
Each block holds one compound with its values, some of them ahead of it. The source made the active and inactive calls. No cut-off for these calls is given here.

Columns and labels:
[1] = molecular target: Vascular endothelial growth factor receptor 2 (Homo sapiens, UniProt P35968); assay: Inhibition of recombinant VEGFR2 (unknown origin) using (Glu,Tyr)4:1 as substrate incubated for 60 mins by ELISA
[2] = molecular target: T1, Fibroblast growth factor receptor 2 (Homo sapiens, UniProt P21802); assay: Inhibition of recombinant FGFR2 (unknown origin) using (Glu,Tyr)4:1 as substrate incubated for 60 mins by ELISA
Target sequence in this assay (P21802 whole entry): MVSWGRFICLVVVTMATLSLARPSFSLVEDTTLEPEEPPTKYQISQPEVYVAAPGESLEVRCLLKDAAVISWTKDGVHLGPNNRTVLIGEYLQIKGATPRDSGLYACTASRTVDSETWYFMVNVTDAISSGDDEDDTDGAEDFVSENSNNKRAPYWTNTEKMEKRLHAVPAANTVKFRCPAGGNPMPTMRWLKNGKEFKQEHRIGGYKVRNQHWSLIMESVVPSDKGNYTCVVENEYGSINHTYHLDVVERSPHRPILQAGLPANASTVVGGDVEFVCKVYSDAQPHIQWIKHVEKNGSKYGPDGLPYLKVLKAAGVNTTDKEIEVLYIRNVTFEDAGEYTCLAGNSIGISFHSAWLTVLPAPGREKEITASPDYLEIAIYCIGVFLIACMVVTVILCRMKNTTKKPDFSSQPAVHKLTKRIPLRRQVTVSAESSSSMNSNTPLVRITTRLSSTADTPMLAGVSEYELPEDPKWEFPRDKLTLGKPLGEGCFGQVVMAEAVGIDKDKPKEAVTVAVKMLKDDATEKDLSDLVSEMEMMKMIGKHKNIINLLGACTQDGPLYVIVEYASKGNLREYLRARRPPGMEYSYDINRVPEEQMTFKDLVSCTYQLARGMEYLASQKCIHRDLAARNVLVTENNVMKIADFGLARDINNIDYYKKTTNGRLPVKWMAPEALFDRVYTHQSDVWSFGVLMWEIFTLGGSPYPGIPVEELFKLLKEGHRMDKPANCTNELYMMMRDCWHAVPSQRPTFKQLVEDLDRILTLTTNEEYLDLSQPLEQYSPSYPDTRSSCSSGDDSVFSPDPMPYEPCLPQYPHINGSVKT

[3] = molecular target: T1, Fibroblast growth factor receptor 2; assay: Inhibition of recombinant FGFR2 (unknown origin) at 10 nM using (Glu,Tyr)4:1 as substrate incubated for 60 mins by ELISA
Target sequence in this assay (P21802 22-821 limits assumed): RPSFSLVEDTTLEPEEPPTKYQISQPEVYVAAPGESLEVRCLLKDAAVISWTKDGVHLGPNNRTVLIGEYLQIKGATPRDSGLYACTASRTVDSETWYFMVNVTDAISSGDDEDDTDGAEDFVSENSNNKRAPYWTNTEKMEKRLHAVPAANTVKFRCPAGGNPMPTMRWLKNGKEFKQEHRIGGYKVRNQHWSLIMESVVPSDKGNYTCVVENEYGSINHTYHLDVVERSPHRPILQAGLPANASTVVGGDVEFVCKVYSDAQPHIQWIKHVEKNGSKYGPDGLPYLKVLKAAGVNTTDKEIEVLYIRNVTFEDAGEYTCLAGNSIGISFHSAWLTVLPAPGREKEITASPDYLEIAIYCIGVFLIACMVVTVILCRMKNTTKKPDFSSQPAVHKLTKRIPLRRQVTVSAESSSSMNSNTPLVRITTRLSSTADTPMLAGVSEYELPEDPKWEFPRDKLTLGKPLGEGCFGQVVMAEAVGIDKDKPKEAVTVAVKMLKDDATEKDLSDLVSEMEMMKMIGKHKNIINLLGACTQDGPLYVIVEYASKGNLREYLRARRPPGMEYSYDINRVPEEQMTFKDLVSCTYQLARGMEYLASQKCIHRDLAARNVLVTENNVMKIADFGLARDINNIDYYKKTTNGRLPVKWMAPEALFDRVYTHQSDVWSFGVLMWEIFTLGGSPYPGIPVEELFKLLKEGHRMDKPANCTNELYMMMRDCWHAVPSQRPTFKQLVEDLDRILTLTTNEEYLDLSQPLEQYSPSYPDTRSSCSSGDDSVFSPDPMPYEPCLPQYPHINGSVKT

[4] = molecular target: T1, Fibroblast growth factor receptor 2; assay: Inhibition of FGFR2 (unknown origin) at 1 nM using (Glu,Tyr)4:1 as substrate incubated for 60 mins by ELISA
Target sequence in this assay (P21802 22-821 limits assumed): as above

[5] = molecular target: Fibroblast growth factor receptor 4 (Homo sapiens, UniProt P22455); assay: Inhibition of recombinant FGFR4 (unknown origin) using (Glu,Tyr)4:1 as substrate incubated for 60 mins by ELISA
[6] = molecular target: T2, Fibroblast growth factor receptor 1 (Homo sapiens, UniProt P11362); assay: Inhibition of FGFR1 phosphorylation in human KG1 cells assessed as reduction of phospho-PLCgamma level at 0.4 to 10 nM incubated for 2 hrs by Western blot analysis; type: cell-based; conditions: KG-1
Target sequence in this assay (P11362 22-822 limits assumed): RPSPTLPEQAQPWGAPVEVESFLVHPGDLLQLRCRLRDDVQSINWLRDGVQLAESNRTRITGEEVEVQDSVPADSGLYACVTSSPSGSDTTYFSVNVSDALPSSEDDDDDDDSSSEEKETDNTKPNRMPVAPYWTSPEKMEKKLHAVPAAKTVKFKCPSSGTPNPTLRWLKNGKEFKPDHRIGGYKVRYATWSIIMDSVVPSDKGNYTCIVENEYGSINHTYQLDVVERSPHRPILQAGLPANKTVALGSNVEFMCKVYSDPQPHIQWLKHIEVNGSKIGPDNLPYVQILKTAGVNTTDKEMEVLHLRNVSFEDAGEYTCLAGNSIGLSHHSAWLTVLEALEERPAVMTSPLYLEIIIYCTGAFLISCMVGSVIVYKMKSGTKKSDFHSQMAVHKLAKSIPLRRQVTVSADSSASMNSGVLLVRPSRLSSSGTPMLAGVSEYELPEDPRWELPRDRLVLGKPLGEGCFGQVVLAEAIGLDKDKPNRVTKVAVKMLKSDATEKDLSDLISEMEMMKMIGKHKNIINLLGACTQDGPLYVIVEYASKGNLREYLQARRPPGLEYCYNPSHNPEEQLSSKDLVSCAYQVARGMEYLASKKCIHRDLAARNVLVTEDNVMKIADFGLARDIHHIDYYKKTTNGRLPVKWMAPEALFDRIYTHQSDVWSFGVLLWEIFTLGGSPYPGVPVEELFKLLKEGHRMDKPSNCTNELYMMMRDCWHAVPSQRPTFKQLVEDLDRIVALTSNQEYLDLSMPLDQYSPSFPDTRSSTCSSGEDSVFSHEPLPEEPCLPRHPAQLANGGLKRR

[7] = molecular target: T2, Fibroblast growth factor receptor 1; assay: Inhibition of FGFR1 phosphorylation in human KG1 cells incubated for 2 hrs by Western blot analysis; type: cell-based; conditions: KG-1
Target sequence in this assay (P11362 22-822 limits assumed): as above

[8] = molecular target: Fibroblast growth factor receptor 3 (Homo sapiens, UniProt P22607); assay: Inhibition of recombinant FGFR3 (unknown origin) using (Glu,Tyr)4:1 as substrate incubated for 60 mins by ELISA
[9] = molecular target: T2, Fibroblast growth factor receptor 1; assay: Inhibition of recombinant FGFR1 (unknown origin) using (Glu,Tyr)4:1 as substrate incubated for 60 mins by ELISA
[10] = molecular target: T2, Fibroblast growth factor receptor 1; assay: Inhibition of FGFR1 phosphorylation in human KG1 cells assessed as reduction of phospho-ERK level at 0.4 to 10 nM incubated for 2 hrs by Western blot analysis; type: cell-based; conditions: KG-1
Target sequence in this assay (P11362 22-822 limits assumed): as above

Chain of Vascular endothelial growth factor receptor 2 (P35968 whole entry): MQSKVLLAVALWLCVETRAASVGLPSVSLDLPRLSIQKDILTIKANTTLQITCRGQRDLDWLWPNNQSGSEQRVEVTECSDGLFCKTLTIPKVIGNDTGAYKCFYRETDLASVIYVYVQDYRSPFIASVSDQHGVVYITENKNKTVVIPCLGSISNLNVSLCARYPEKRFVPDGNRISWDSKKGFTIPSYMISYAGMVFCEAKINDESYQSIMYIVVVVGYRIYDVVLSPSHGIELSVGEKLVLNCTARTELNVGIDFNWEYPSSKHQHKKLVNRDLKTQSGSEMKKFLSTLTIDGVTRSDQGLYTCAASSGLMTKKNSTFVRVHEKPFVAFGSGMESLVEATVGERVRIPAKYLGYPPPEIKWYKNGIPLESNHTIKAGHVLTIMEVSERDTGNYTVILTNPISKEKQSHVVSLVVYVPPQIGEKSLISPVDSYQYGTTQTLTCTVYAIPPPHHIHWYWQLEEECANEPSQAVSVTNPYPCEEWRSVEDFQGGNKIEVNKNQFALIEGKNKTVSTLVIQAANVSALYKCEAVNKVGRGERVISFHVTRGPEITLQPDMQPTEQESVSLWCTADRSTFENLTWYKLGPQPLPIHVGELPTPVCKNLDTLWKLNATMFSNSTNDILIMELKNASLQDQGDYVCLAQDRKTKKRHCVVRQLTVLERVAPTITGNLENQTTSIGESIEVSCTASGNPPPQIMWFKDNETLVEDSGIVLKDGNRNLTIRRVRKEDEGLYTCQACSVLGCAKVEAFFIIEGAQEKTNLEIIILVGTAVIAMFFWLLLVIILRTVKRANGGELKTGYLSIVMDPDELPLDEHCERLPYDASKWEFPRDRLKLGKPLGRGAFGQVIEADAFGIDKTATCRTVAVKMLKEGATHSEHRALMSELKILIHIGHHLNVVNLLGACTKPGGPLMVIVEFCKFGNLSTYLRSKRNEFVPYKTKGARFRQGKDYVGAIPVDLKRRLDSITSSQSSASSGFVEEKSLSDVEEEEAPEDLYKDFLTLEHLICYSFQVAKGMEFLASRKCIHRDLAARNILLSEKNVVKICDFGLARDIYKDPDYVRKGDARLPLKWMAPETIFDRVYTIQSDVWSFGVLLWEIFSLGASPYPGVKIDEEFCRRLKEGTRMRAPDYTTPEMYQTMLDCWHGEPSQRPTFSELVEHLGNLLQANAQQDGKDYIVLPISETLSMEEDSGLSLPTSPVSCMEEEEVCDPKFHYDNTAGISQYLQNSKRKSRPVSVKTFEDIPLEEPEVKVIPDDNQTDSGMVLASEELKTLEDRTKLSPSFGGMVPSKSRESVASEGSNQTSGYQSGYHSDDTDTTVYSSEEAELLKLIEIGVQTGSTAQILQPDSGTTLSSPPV
Chain of Fibroblast growth factor receptor 3 (P22607 whole entry): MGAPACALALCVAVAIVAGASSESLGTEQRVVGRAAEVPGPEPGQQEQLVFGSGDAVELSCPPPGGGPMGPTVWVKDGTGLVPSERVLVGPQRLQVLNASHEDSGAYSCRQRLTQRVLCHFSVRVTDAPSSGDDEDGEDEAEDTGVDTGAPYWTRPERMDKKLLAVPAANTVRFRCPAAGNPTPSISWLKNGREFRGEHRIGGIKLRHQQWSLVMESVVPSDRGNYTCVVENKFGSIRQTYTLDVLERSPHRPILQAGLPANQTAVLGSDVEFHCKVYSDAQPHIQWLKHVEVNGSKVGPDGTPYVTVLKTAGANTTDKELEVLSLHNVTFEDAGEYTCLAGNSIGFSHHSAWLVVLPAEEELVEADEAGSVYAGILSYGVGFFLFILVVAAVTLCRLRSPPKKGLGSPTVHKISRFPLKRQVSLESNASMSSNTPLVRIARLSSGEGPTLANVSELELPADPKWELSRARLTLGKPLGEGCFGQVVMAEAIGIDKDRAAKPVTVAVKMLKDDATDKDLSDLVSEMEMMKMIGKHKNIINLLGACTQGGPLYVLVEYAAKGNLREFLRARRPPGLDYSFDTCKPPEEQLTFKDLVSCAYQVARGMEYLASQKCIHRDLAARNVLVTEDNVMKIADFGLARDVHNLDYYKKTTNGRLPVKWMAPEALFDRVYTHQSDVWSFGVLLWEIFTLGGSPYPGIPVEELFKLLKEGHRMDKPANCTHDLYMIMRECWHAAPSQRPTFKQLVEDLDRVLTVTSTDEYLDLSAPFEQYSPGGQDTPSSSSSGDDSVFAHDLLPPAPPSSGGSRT

IC50 [1]: > 100 nM
SMILES: COCCOc1ccc2c(Nc3cc(CCc4cc(OC)cc(OC)c4)[nH]n3)ncnc2c1

IC50 [1]: > 100 nM
SMILES: COc1cc(CCc2cc(Nc3ncnc4cc(NCCN5CCOCC5)ccc34)n[nH]2)cc(OC)c1

inhibition [3]: 73.3%
inhibition [4]: 16.9%
SMILES: COc1cc(CCc2cc(Nc3ncnc4cc(OC)ccc34)n[nH]2)cc(OC)c1

inhibition [4]: 87.4%
SMILES: COc1cc(CCc2cc(Nc3ncnc4cc(N5CCCCC5)ccc34)n[nH]2)cc(OC)c1

More lines, now with the values behind:

SMILES: CCN1CCN(c2ccc3c(Nc4cc(CCc5cc(OC)cc(OC)c5)[nH]n4)nc(NCc4cc(C)no4)nc3c2)CC1
IC50 [2]: < 10 nM

SMILES: COc1cc(CCc2cc(Nc3ncnc4cc(N5CCN(S(=O)(=O)c6ccc(C)cc6)CC5)ccc34)n[nH]2)cc(OC)c1
inhibition [3]: 41.8%

SMILES: CCc1nc(Nc2cc(CCc3cc(OC)cc(OC)c3)[nH]n2)c2ccc(N3CCN(CC)CC3)cc2n1
IC50 [1]: 35.8 nM

SMILES: CCN1CCN(c2ccc3c(Nc4cc(CCc5c(Cl)c(OC)cc(OC)c5Cl)[nH]n4)ncnc3c2)CC1
IC50 [1]: 17.5 nM

SMILES: COc1cc(CCc2cc(Nc3ncnc4cc(N5CCN6CCCCC6C5)ccc34)n[nH]2)cc(OC)c1 (stereo unspecified)
IC50 [5]: 52.7 nM
inhibition [6]: Active
inhibition [7]: Dose-dependent effect
IC50 [8]: 5 nM
IC50 [9]: 1 nM
IC50 [1]: 21.5 nM
inhibition [10]: Active
